Measured values: patent US7799819B2, “7-Amido-isoindolyl compounds and their pharmaceutical uses” (Celgene Corporation, priority 2003, dated 2010)

Structure (SMILES)	melting point [°C]
CCOc1cc([C@@H](CC(=O)NOC(=O)CC(C)(C)C)N2Cc3cccc(NC(=O)C4CC4)c3C2=O)ccc1OC [Example 27, (1R)-Cyclopropanecarboxylic acid {2-[2-(3,3-dimethyl-butyryloxycarbamoyl)-1-(3-ethoxy-4-methoxy-phenyl)-ethyl]-3-oxo-2,3-dihydro-1H-isoindol-4-yl}-amide]	118 to 120
CCOc1cc([C@@H](CS(C)(=O)=O)N2Cc3c(Cl)ccc(NC(=O)CN4CCOCC4)c3C2=O)ccc1OC.Cl	198 to 200
CCOc1cc(C(CC#N)N2Cc3c(Cl)ccc(NC(=O)C4CC4)c3C2=O)ccc1OC (stereo not drawn) [Example 21, Cyclopropanecarboxylic acid {7-chloro-2-[2-cyano-1-(3-ethoxy-4-methoxy-phenyl)-ethyl]-3-oxo-2,3-dihydro-1H-isoindol-4-yl}-amide]	200 to 202
CCOc1cc([C@@H](CCS(C)(=O)=O)N2Cc3cccc(NC(=O)C4CC4)c3C2=O)ccc1OC [Example 8, (1R)-Cyclopropanecarboxylic acid {2-[1-(3-ethoxy-4-methoxy-phenyl)-3-methanesulfonyl-propyl]-3-oxo-2,3-dihydro-1H-isoindol-4-yl}-amide]	148 to 150
CCOc1cc([C@@H](CC(=O)NOC(=O)C(C)(C)C)N2Cc3cccc(NC(=O)C4CC4)c3C2=O)ccc1OC [Example 26, (1R)-Cyclopropanecarboxylic acid {2-[2-(2,2-dimethyl-propionyloxycarbamoyl)-1-(3-ethoxy-4-methoxy-phenyl)-ethyl]-3-oxo-2,3-dihydro-1H-isoindol-4-yl}-amide]	146 to 148
CCOc1cc(C(CCN(OC(=O)OC(C)(C)C)C(=O)OC(C)(C)C)N2Cc3cccc(NC(=O)C4CC4)c3C2=O)ccc1OC [Example 2, (3R)-(tert-Butoxy)-N-{3-[7-(cyclopropylcarbonylamino)-1-oxoisoindolin-2-yl]-3-(3-ethoxy-4-methoxyphenyl)propyl}carbonylamino(tert-butoxy)formate]	153 to 155
CCOc1cc([C@@H](CC(=O)NO)N2Cc3cccc(NC(=O)C4CC4)c3C2=O)ccc1OC [Example 9, (1R)-Cyclopropanecarboxylic acid {2-[1-(3-ethoxy-4-methoxy-phenyl)-2-hydroxycarbamoyl-ethyl]-3-oxo-2,3-dihydro-1H-isoindol-4-yl}-amide]	160 to 162
CCOc1cc([C@@H](CC(=O)NOC(=O)C2CC2)N2Cc3cccc(NC(=O)C4CC4)c3C2=O)ccc1OC [Example 24, (1R)-Cyclopropanecarboxylic acid {2-[2-cyclopropanecarbonyloxycarbamoyl-1-(3-ethoxy-4-methoxy-phenyl)-ethyl]-3-oxo-2,3-dihydro-1H-isoindol-4-yl}-amide]	130 to 132
CCOc1cc([C@@H](CC[S+](C)[O-])N2Cc3cccc(NC(=O)C4CC4)c3C2=O)ccc1OC (stereo partly drawn) [Example 11, (3R)-Cyclopropanecarboxylic acid {2-[1-(3-ethoxy-4-methoxy-phenyl)-3-methanesulfinyl-propyl]-3-oxo-2,3-dihydro-1H-isoindol-4-yl}-amide]	122 to 125
CCOc1cc([C@@H](CC(=O)O)N2Cc3c(Cl)ccc(NC(=O)C4CC4)c3C2=O)ccc1OC [Example 12, (3R)-3-[4-Chloro-7-(cyclopropanecarbonyl-amino)-1-oxo-1,3-dihydro-isoindol-2-yl]-3-(3-ethoxy-4-methoxy-phenyl)-propionic acid]	118 to 120
CCOc1cc([C@@H](CS(C)(=O)=O)N2Cc3c(Cl)ccc(NC(=O)C4CC4)c3C2=O)ccc1OC [Example 18, (1S)-Cyclopropanecarboxylic acid {7-chloro-2-[1-(3-ethoxy-4-methoxy-phenyl)-2-methanesulfonyl-ethyl]-3-oxo-2,3-dihydro-1H-isoindol-4-yl}-amide]	197 to 199
CCOc1cc([C@@H](CC(N)=O)N2Cc3c(Cl)ccc(NC(=O)C4CC4)c3C2=O)ccc1OC [Example 14, (1R)-Cyclopropanecarboxylic acid {2-[2-carbamoyl-1-(3-ethoxy-4-methoxy-phenyl)-ethyl]-7-chloro-3-oxo-2,3-dihydro-1H-isoindol-4-yl}-amide]	201 to 203
CCOc1cc([C@@H](CCNC(N)=O)N2Cc3cccc(NC(=O)C4CC4)c3C2=O)ccc1OC [Example 6, (1R)-Cyclopropanecarboxylic acid {2-[1-(3-ethoxy-4-methoxy-phenyl)-3-ureido-propyl]-3-oxo-2,3-dihydro-1H-isoindol-4-yl}-amide]	162 to 164
CCOc1cc(C(CC)N2Cc3cccc(NC(=O)C4CC4)c3C2=O)ccc1OC (stereo not drawn) [Example 20, Cyclopropanecarboxylic acid {2-[1-(3-ethoxy-4-methoxy-phenyl)-propyl]-3-oxo-2,3-dihydro-1H-isoindol-4-yl}-amide]	107 to 109
CCOc1cc([C@@H](CC(C)(C)O)N2Cc3cccc(NC(=O)C4CC4)c3C2=O)ccc1OC [Example 23, (1R)-Cyclopropanecarboxylic acid {2-[1-(3-ethoxy-4-methoxy-phenyl)-3-hydroxy-3-methyl-butyl]-3-oxo-2,3-dihydro-1H-isoindol-4-yl}-amide]	90 to 92
CCOc1cc([C@@H](CS(C)(=O)=O)N2Cc3c(Cl)ccc(NC(=O)CN(C)C)c3C2=O)ccc1OC.Cl	198 to 200
CCOc1cc([C@@H](CCN(C)C)N2Cc3cccc(NC(=O)C4CC4)c3C2=O)ccc1OC.Cl	119 to 121
CCOc1cc([C@@H](CS(C)(=O)=O)N2Cc3c(Br)ccc(NC(=O)C4CC4)c3C2=O)ccc1OC [Example 19, (1S)-Cyclopropanecarboxylic acid {7-bromo-2-[1-(3-ethoxy-4-methoxy-phenyl)-2-methanesulfonyl-ethyl]-3-oxo-2,3-dihydro-1H-isoindol-4-yl}-amide]	219 to 221
CCOc1cc([C@@H](CC(=O)OC)N2Cc3c(Cl)ccc(NC(=O)C4CC4)c3C2=O)ccc1OC [Example 13, (3R)-3-[4-Chloro-7-(cyclopropanecarbonyl-amino)-1-oxo-1,3-dihydro-isoindol-2-yl]-3-(3-ethoxy-4-methoxy-phenyl)-propionic acid methyl ester]	158 to 160
CCOc1cc([C@@H](CCNS(C)(=O)=O)N2Cc3cccc(NC(=O)C4CC4)c3C2=O)ccc1OC [Example 4, (1R)-Cyclopropanecarboxylic acid {2-[1-(3-ethoxy-4-methoxy-phenyl)-3-methanesulfonylamino-propyl]-3-oxo-2,3-dihydro-1H-isoindol-4-yl}-amide]	93 to 95
CCOc1cc([C@@H](CCNO)N2Cc3cccc(NC(=O)C4CC4)c3C2=O)ccc1OC [Example 3, (1R)-Cyclopropanecarboxylic acid {2-[1-(3-ethoxy-4-methoxy-phenyl)-3-hydroxyamino-propyl]-3-oxo-2,3-dihydro-1H-isoindol-4-yl}-amide]	136 to 138
CCOc1cc([C@@H](CS(C)(=O)=O)N2Cc3c(Cl)ccc(NC(=O)N(C)C)c3C2=O)ccc1OC [Example 29, (1S)-3-{7-Chloro-2-[1-(3-ethoxy-4-methoxy-phenyl)-2-methanesulfonyl-ethyl]-3-oxo-2,3-dihydro-1H-isoindol-4-yl}-1,1-dimethyl-urea]	205 to 207
CCOc1cc([C@@H](CC(=O)N(C)C)N2Cc3c(Cl)ccc(NC(=O)C4CC4)c3C2=O)ccc1OC [Example 15, (1R)-Cyclopropanecarboxylic acid {7-chloro-2-[2-dimethylcarbamoyl-1-(3-ethoxy-4-methoxy-phenyl)-ethyl]-3-oxo-2,3-dihydro-1H-isoindol-4-yl}-amide]	163 to 165
CCOc1cc([C@@H](CC(=O)NOC(C)=O)N2Cc3c(Cl)ccc(NC(=O)C4CC4)c3C2=O)ccc1OC [Example 17, (1R)-Cyclopropanecarboxylic acid {2-[2-acetoxycarbamoyl-1-(3-ethoxy-4-methoxy-phenyl)-ethyl]-7-chloro-3-oxo-2,3-dihydro-1H-isoindol-4-yl}-amide]	139 to 141
CCOc1cc([C@@H](CS(C)(=O)=O)N2Cc3c(Cl)ccc(NC(=O)CN4CCN(C)CC4)c3C2=O)ccc1OC [Example 30, (1S)—N-{7-Chloro-2-[1-(3-ethoxy-4-methoxy-phenyl)-2-methanesulfonyl-ethyl]-3-oxo-2,3-dihydro-1H-isoindol-4-yl}-2-(4-methyl-piperazin-1-yl)-acetamide]	205 to 207
CCOc1cc([C@@H](CC(=O)NOC(=O)C(C)C)N2Cc3cccc(NC(=O)C4CC4)c3C2=O)ccc1OC [Example 25, (1R)-Cyclopropanecarboxylic acid {2-[1-(3-ethoxy-4-methoxy-phenyl)-2-isobutyryloxycarbamoyl-ethyl]-3-oxo-2,3-dihydro-1H-isoindol-4-yl}-amide]	107 to 109
CCOc1cc([C@@H](CCO)N2Cc3cccc(NC(=O)C4CC4)c3C2=O)ccc1OC [Example 1, (1R)-Cyclopropanecarboxylic acid {2-[1-(3-ethoxy-4-methoxy-phenyl)-3-hydroxy-propyl]-3-oxo-2,3-dihydro-1H-isoindol-4-yl}-amide]	103 to 105
CCOc1cc(C(Cc2c(Cl)cncc2Cl)N2Cc3cccc(NC(=O)C4CC4)c3C2=O)ccc1OC (stereo not drawn) [Example 22, Cyclopropanecarboxylic acid {2-[2-(3,5-dichloro-pyridin-4-yl)-1-(3-ethoxy-4-methoxy-phenyl)-ethyl]-3-oxo-2,3-dihydro-1H-isoindol-4-yl}-amide]	159 to 161
CCOc1cc([C@@H](CC(=O)NOC(C)=O)N2Cc3cccc(NC(=O)C4CC4)c3C2=O)ccc1OC [Example 10, (1R)-Cyclopropanecarboxylic acid {2-[2-acetoxycarbamoyl-1-(3-ethoxy-4-methoxy-phenyl)-ethyl]-3-oxo-2,3-dihydro-1H-isoindol-4-yl}-amide]	140 to 142
CCOc1cc([C@@H](CS(C)(=O)=O)N2Cc3c(F)ccc(NC(=O)C4CC4)c3C2=O)ccc1OC [Example 28, (1S)-Cyclopropanecarboxylic acid {2-[1-(3-ethoxy-4-methoxy-phenyl)-2-methanesulfonyl-ethyl]-7-fluoro-3-oxo-2,3-dihydro-1H-isoindol-4-yl}-amide]	176 to 178
